Measurements: paper PMC10967972, “Different Coactivator Recruitment to Human PPARα/δ/γ Ligand-Binding Domains by Eight PPAR Agonists to Treat Nonalcoholic Fatty Liver Disease” (Biomedicines, 2024)
Read-outs that look alike come from different tables or passages of the source.

Columns and labels:
Type in all cases: biochemical
[1] = target: T1, human PPARδ-LBD (Homo sapiens, UniProt Q03181); experiment: TR-FRET coactivator recruitment assay, PPARδ-LBD; conditions: for EC50: Buffer A; for Approximate potency order in the recruitment of four coactivators, PPARδ: evaluated based on EC50 values, PGC, PGC1α, SRC, SRC1, TRAP, TRAP220
T1 construct: PPARδ-LBD (AAs 170–441); made in house
T1 sequence (Q03181 170-441): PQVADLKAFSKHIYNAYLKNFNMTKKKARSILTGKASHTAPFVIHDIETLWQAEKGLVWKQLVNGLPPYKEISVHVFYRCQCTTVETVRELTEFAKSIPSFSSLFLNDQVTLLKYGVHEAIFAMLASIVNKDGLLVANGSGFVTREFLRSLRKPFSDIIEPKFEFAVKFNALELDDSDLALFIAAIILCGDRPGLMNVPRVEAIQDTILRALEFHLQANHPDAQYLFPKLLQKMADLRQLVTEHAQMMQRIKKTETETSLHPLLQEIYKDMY

[2] = target: T2, human PPARγ-LBD (Homo sapiens, UniProt P37231); experiment: TR-FRET coactivator recruitment assay, PPARγ-LBD; conditions: for Approximate potency order in the recruitment of four coactivators, PPARγ: evaluated based on EC50 values, PGC, PGC1α, SRC, SRC1, TRAP, TRAP220
T2 construct: PPARγ-LBD (AAs 203–477 in isoform 1); made in house
T2 sequence (P37231 203-477 isoform P37231-2): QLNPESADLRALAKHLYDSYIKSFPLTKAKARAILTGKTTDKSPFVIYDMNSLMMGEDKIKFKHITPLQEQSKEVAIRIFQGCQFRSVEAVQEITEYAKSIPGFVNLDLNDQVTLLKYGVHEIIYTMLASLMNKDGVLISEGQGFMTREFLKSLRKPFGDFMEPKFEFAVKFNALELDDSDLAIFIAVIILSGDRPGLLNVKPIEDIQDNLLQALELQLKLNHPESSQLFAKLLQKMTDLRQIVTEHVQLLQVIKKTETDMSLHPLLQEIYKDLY

[3] = target: T3, human PPARα-LBD (Homo sapiens, UniProt Q07869); experiment: TR-FRET coactivator recruitment assay, PPARα-LBD; conditions: for Approximate potency order in the recruitment of four coactivators, PPARα: evaluated based on EC50 values, PGC, PGC1α, SRC, SRC1, TRAP, TRAP220; for EC50: Buffer A
T3 construct: Human PPARα-LBD [amino acids (AAs) 200–468]; made in house
T3 sequence (Q07869 200-468): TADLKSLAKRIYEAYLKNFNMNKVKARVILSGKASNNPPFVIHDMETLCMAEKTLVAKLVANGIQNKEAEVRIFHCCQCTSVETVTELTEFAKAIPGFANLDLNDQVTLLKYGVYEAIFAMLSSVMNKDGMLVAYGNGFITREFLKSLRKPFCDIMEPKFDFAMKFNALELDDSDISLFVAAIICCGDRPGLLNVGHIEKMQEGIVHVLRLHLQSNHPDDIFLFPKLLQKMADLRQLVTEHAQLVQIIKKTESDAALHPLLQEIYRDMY

[4] = CBP peptide recruitment, read-out: PPARδ CBP EC50
[5] = PGC1α peptide recruitment, read-out: PPARδ PGC1α EC50
[6] = SRC1 peptide recruitment, read-out: PPARδ SRC1 EC50
[7] = TRAP220 peptide recruitment, read-out: PPARδ TRAP220 EC50
[8] = read-out: PPARδ CBP % of GW501516 max response
[9] = read-out: PPARδ PGC1α % of GW501516 max response
[10] = read-out: PPARδ SRC1 % of GW501516 max response
[11] = read-out: PPARδ TRAP220 % of GW501516 max response
[12] = CBP peptide recruitment, Buffer A, read-out: PPARγ CBP EC50
[13] = PGC1α peptide recruitment, Buffer A, read-out: PPARγ PGC1α EC50
[14] = SRC1 peptide recruitment, Buffer A, read-out: PPARγ SRC1 EC50
[15] = TRAP220 peptide recruitment, Buffer A, read-out: PPARγ TRAP220 EC50
[16] = read-out: PPARγ CBP % of GW1929 max response
[17] = read-out: PPARγ PGC1α % of GW1929 max response
[18] = read-out: PPARγ SRC1 % of GW1929 max response
[19] = read-out: PPARγ TRAP220 % of GW1929 max response
[20] = read-out: PPARα CBP % of GW7647 max response
[21] = read-out: PPARα PGC1α % of GW7647 max response
[22] = read-out: PPARα SRC1 % of GW7647 max response
[23] = read-out: PPARα TRAP220 % of GW7647 max response

EC50 [1, 4] [µM]	EC50 [1, 5] [µM]	EC50 [1, 6] [µM]	EC50 [1, 7] [µM]	Approximate potency order in the recruitment of four coactivators, PPARδ [1]	Emax [1, 8] [%]	Emax [1, 9] [%]	Emax [1, 11] [%]	EC50 [2, 12] [µM]	EC50 [2, 13] [µM]	EC50 [2, 14] [µM]	EC50 [2, 15] [µM]	Approximate potency order in the recruitment of four coactivators, PPARγ [2]	Emax [2, 16] [%]	Approximate potency order in the recruitment of four coactivators, PPARα [3]	Emax [3, 20] [%]	Emax [3, 21] [%]	Emax [3, 22] [%]	Emax [3, 23] [%]	Compound	Emax [1, 10] [%]	other results
8.64	4.75	14.9	7.48	PGC>CBP=TRAP>SRC	74.6	91.1	77.3	5.58	8.02	13.8	5.59	CBP=TRAP>PGC>SRC	80.3	CBP>PGC=SRC>TRAP	96.7	74.5	101	102	CC[C@@H](Oc1cccc(CN(CCCOc2ccc(OC)cc2)c2nc3ccccc3o2)c1)C(=O)O [Pemafibrate, pemafibrate]	58.6	recruitment of coactivators to PPARδ-LBD (in words) ([1]; four coactivator peptides): effective; Emax [2, 17]: 50.8%; Emax [2, 18]: 27.7%; Emax [2, 19]: 82.5%
> 100	3.91	> 100	> 100	Faint activation	6.72	8.94	2.5	1.87	2.46	5.55	8.43	CBP>PGC>TRAP=SRC	85	CBP>TRAP>PGC=SRC	80.2	58.3	54.2	64.2	CCO[C@@H](Cc1ccc(OCCn2c(C)ccc2-c2ccc(SC)cc2)cc1)C(=O)O [Saroglitazar, saroglitazar]		Emax [2, 17]: 50.1%; Emax [2, 18]: 40%; Emax [2, 19]: 52.4%; EC50 ([3]; CBP peptide recruitment, read-out: PPARα CBP EC50): 0.28 µM; EC50 ([3]; PGC1α peptide recruitment, read-out: PPARα PGC1α EC50): 0.761 µM; EC50 ([3]; SRC1 peptide recruitment, read-out: PPARα SRC1 EC50): 0.814 µM; EC50 ([3]; TRAP220 peptide recruitment, read-out: PPARα TRAP220 EC50): 0.674 µM
																			GW1929		PPARγ CBP maximal fold-induction of basal levels ([2]; CBP peptide, fold over no ligand): 14.7 ×; PPARγ PGC1α maximal fold-induction of basal levels ([2]; PGC1α peptide, fold over no ligand): 11.9 ×; PPARγ SRC1 maximal fold-induction of basal levels ([2]; SRC1 peptide, fold over no ligand): 12.6 ×; PPARγ TRAP220 maximal fold-induction of basal levels ([2]; TRAP220 peptide, fold over no ligand): 15.5 ×; maximal fold-induction from basal (no ligand) levels on the four coactivators, PPARγ ([2]; range over PGC1α, CBP, SRC1, TRAP220, Buffer A): 11.9–15.5 ×

Compound	EC50 [1, 4] [µM]	EC50 [1, 5] [µM]	EC50 [1, 6] [µM]	EC50 [1, 7] [µM]	Approximate potency order in the recruitment of four coactivators, PPARδ [1]	Emax [1, 8] [%]	Emax [1, 9] [%]	Emax [1, 11] [%]	EC50 [2, 12] [µM]	EC50 [2, 13] [µM]	EC50 [2, 14] [µM]	EC50 [2, 15] [µM]	Approximate potency order in the recruitment of four coactivators, PPARγ [2]	Emax [2, 16] [%]	Approximate potency order in the recruitment of four coactivators, PPARα [3]	Emax [3, 20] [%]	Emax [3, 21] [%]	Emax [3, 22] [%]	Emax [3, 23] [%]	Emax [1, 10] [%]	other results
CCc1ccc(CCOc2ccc(CC3SC(=O)NC3=O)cc2)nc1 (centres unmarked) [Pioglitazone, pioglitazone]					No activation	2.47	4.53	1.55							CBP>>>PGC=SRC=TRAP	34.9	13.9	8.37	3.67	1.19	
